Several values for one entry are separate records, joined by “and”; a condition that tells them apart may be missing. Identical values can stand only once. Entries after “also recorded” stand apart in the source; their conditions may differ.
B1: MetMAb: Anti-c-met monovalent monoclonal antibody MetMAb (rhuOA5D5v2) (WO2007/063816) (antibody, chains of the INN, looked up, V domains shown)
VH: EVQLVESGGGLVQPGGSLRLSCAASGYTFTSYWLHWVRQAPGKGLEWVGMIDPSNSDTRFNPNFKDRFTISADTSKNTAYLQMNSLRAEDTAVYYCATYRSYVTPLDYWGQGTLVTVSS
VL: DIQMTQSPSSLSASVGDRVTITCKSSQSLLYTSSQKNYLAWYQQKPGKAPKLLIYWASTRESGVPSRFSGSGSGTDFTLTISSLQPEDFATYYCQQYYAYPWTFGQGTKVEIK
modifications: one-armed

Key:
NCI-H596 cells = assay: NCI-H596 cell viability assay (Celltiter-Glo) with TGFα +/- HGF; type: cell-based, human
Description: Cells: NCI-H596 cells were obtained from the American Type Culture Collection (ATCC) and were maintained in RPMI 1640 supplemented with 10% fetal bovine serum (FBS; Sigma, St. Louis, Mo.), and 2 mM L-glutamine. Cell assay media was changed as described below depending upon the experiment.
Therapeutics and Growth factors: Erlotinib and MetMAb were from Genentech, Inc., as described above. HGF and TGFα were generated at Genentech.
Cell Viability Assays: For cell viability assays, cells were plated in quadruplicate at 1×10^3 cells per well in 384-well plates in RPMI containing 0.5% FBS (assay medium) overnight, prior to stimulation with assay medium containing 3 nM TGF-a+/−HGF. Erlotinib was added at multiple concentrations and 72 hours later, cell viability was measured using the Celltiter-Glo Luminescent Cell Viability Assay (Promega, Madison, Wis.).
To determine whether activation of the c-met pathway could change the response of NCI-N596 cells to erlotinib, cells were stimulated with TGFα, treated with erlotinib and/or HGF, then cell viability was assayed.

Akt = assay: phospho-Akt in NCI-H596 hu-HGF-Tg-SCID xenograft tumors (immunoblot); type: in vivo, human; details: MetMAb 30 mg/kg 24 h, erlotinib 150 mg/kg 6 h prior to harvest, average of 5 animals
Description: (§1) NCI-H596 hu-HGF-Tg-SCID xenograft tumors: NCI-H596 xenografts were established in hu-HGF-Tg-SCID mice as described in Example 4. Tumors were allowed to grow to 200-300 mm^3 prior to treatment. Dosing was performed as described in Table 8. Briefly, MetMAb (30 mg/kg) or MetMAb buffer was dosed at time zero hours (0 hr) and methylcellulose tween vehicle (MCT) or erlotinib (150 mg/kg) was dosed at time 18 hours (18 hr). Mice were euthanized and tumors and plasma collected at time 24 hours (24 hr). Tumors were snap frozen in liquid nitrogen and then kept at −70° C. until they were processed for immunoprecipitation and immunoblotting.
Immunoprecipitations and Immunoblotting: To process tumors for protein analysis, tumors were first homogenized using a glass dounce with lysis buffer (Cell Signaling Technology, Inc., Danvers, Mass.), supplemented with 1 mM PMSF, additional protease inhibitor cocktail, and phosphatase inhibitor cocktail I and II (Sigma, Inc., St. Louis, Mo.). […] Protein concentrations were determined using the BCA™ Protein Assay Kit (Pierce, Inc., Rockford, Ill.) and samples were immunoblotted. […] Samples were then analyzed by SDS-PAGE and immunoblotting. […] Immunoblots were imaged and phospho-protein levels were quantified and normalized to total protein levels (e.g. pEGFR over total EGFR) using an Odyssey imager (LI-COR Biosciences, Lincoln, Nebr.). […]

ERK-1/2 = assay: phospho-ERK-1/2 in NCI-H596 hu-HGF-Tg-SCID xenograft tumors (immunoblot); type: in vivo, human; details: MetMAb 30 mg/kg 24 h, erlotinib 150 mg/kg 6 h prior to harvest, average of 5 animals
Description: as §1, with “Tumors” for “NCI-H596 hu-HGF-Tg-SCID xenograft tumors: NCI-H596 xenografts were established in hu-HGF-Tg-SCID mice as described in Example 4. Tumors”
Immunoprecipitations and Immunoblotting: To process tumors for protein analysis, tumors were first homogenized using a glass dounce with lysis buffer (Cell Signaling Technology, Inc., Danvers, Mass.), supplemented with 1 mM PMSF, additional protease inhibitor cocktail, and phosphatase inhibitor cocktail I and II (Sigma, Inc., St. Louis, Mo.). Lysates were incubated on ice for one hour and then centrifuged at 14,000×g for five minutes and supernatants collected. Protein concentrations were determined using the BCA™ Protein Assay Kit (Pierce, Inc., Rockford, Ill.) and samples were immunoblotted. […] Samples were then analyzed by SDS-PAGE and immunoblotting. […] Immunoblots were imaged and phospho-protein levels were quantified and normalized to total protein levels (e.g. pEGFR over total EGFR) using an Odyssey imager (LI-COR Biosciences, Lincoln, Nebr.). […]

Molecule | sensitivity (response) of cells to erlotinib in the presence of HGF (NCI-H596 cells; TGFα plus HGF 0.5 to 50 ng/ml, 72 hours) | cell viability when grown in the presence of erlotinib and TGFα (NCI-H596 cells; TGFα, no HGF) | pAkt/total Akt (Akt; listed as Erlotinib) | pERK1/2/total ERK1/2 (ERK-1/2; listed as Erlotinib) | effect of MetMAb on erlotinib sensitivity (cell viability) (NCI-H596 cells; TGFα and HGF (50 ng/ml), MetMAb 1 μM, varying erlotinib) | pAkt/total Akt (Akt) | pERK1/2/total ERK1/2 (ERK-1/2)
C#Cc1cccc(Nc2ncnc3cc(OCCOC)c(OCCOC)cc23)c1 [erlotinib, N-(3-ethynylphenyl)-6,7-bis(2-methoxyethoxy)-4-quinazolinamine] | Reduction in relative response; also recorded: dramatically reduced in a dose-dependent manner; also recorded: attenuated response | reduced cell viability | 45% (+/−25.7%) % of vehicle control and 45 (±25.7) % of vehicle control | 39% (+/−8.9%) % of vehicle control and 39 (±8.9) % of vehicle control | – | – | –
B1 | – | – | – | – | dramatically restored erlotinib sensitivity | 72% (+/−27.9%) % of vehicle control and 72 (±27.9) % of vehicle control | 72% (+/−40.3%) % of vehicle control and 72 (±40.3) % of vehicle control

Source: patent publication US20160303127A1, “COMBINATION THERAPY WITH C-MET AND EGFR ANTAGONISTS” (Genentech, Inc., priority 2008, published 2016)
